Results reported in patent US5366958A, “Localized delivery using fibronectin conjugates” (The Liposome Company, Inc., priority 1993, dated 1994).

How the values were obtained:
[1] = ocular application; cited from earlier work
[2] = assay type: in vivo, mouse (female Swiss Webster); settings: intra-articular, 2 ul, normalized to maximum possible value of 100%
Method: For this example control SPLVs were prepared as described in Section 4.3. using the following formulation: 100 mg EPC, 3.7 mg PE, and 10 mg indomethacin were dissolved in chloroform and then dried down to a film. The indomethacin was entrapped in the SPLVs by resuspending the film in ether, adding the aqueous phase and sonicating while evaporating. Trace amounts of radiolabeled ^14 C-indomethacin were incorporated to quantify retention of drug in joints of injected test animals.
Twenty-five female Swiss Webster mice were anesthetized with 50 mg/kg pentobarbitol and divided into 5 treatment groups. Group 1 was treated with unentrapped ^14 C-indomethacin (trace amount) in PBS buffer solution. Group 2 was treated with ^14 C-indomethacin entrapped in SPLVs (control SPLVs). Group 3 was treated with fibronectin-modified control SPLVs (non-covalent association) prepared by incubation of the SPLV-entrapped ^14 C-indomethacin with 0.3 mg fibronectin (FN, Seragen, Inc., Boston, Mass.; or Collaborative Research, Inc., Lexington, Mass.) for 2 hours before the SPLVs were repeatedly washed to remove unincorporated materials. Groups 4 and 5 were treated with SPLVs in which fibronectin was covalently attached to the liposomes. […] Two drops of glacial acetic acid were then added and samples were dark adapted over night before radioactivity was determined.

% Total 14C-Indomethacin Remaining in Joint, 5 Hours ([2]; 5 hours post-injection) | % Total 14C-Indomethacin Remaining in Joint, 24 Hours ([2]; 24 hours post-injection) | Compound | effectiveness in treating recurrent corneal erosion [1]
– | – | fibronectin | effective
4.7% | 1.0% | COc1ccc2c(c1)c(CC(=O)O)c(C)n2C(=O)c1ccc(Cl)cc1 [Unentrapped 14C-Indomethacin, indomethacin] | –
